Here are results for one compound from US8188152B2, “2-aminoalcohols for the treatment of neurodegenerative diseases” (Biocopea Limited, priority 2005, dated 2012).

For this assay, the system named is SJL mouse EAE model of multiple sclerosis. The assay can be described thus: Experimental Allergic Encephalomyelitis (EAE) in SJL mice, clinical neurological scoring 0-5. Conditions: 10 mg/kg orally once a day. The assay is classed as in vivo. As to the method: Experimental Allergic Encephalomyelitis (EAE) is a central nervous system, autoimmune, demyleinating disease, that mimics many aspects of multiple sclerosis. Acute models of murine EAE are often utilised to evaluate the efficacy of therapeutics.
Acclimatised SJL mice were sensitised by a subcutaneous injection proteolipid protein (PLP) in Freund's complete adjuvant (CFA) acting as an encephalitogenic inoculum. Innoculum was administered subcutaneously at a concentration of 125 μg PLP/300 μg CFA in a volume of 200 μl. 48 hours later, an intraperitoneal injection of pertussis toxin (PTX) was administered at a dose of 20 μg/kg, to increase blood-brain barrier permeability.
(+)-Erythro-2-tert-butylamino-1-(3-chlorophenyl)-propan-1-ol hydrochloride and copoxane were administered from the first day of the experiment and once a day until the end. (+)-Erythro-2-tert-butylamino-1-(3-chlorophenyl)-propan-1-ol hydrochloride was administered orally at a dose of 10 mg/kg. Copaxone was administered intraperitoneally at a dose of 25 mg/kg. Throughout the experiment, careful clinical examinations and body weights were taken to observe the well being of the animal. In addition, clinical scoring of the EAE symptoms was taken to the classical 0-5 scale, as follows: • 0 Normal reactions • 1 Tail weakness • 2 Hind leg weakness and paresis • 3 Hind leg paralysis • 4 Quadriplegia • 5 Moribund/death Results

Consider `C[C@H](NC(C)(C)C)[C@H](O)c1cccc(Cl)c1.Cl` [(+)-erythro-2-tert-butylamino-1-(3-chlorophenyl)-propan-1-ol hydrochloride], for which the “improvement in symptoms / disease resolution” value (compared to the vehicle) is reported as “more rapid improvement in symptoms”. Besides, the maximal neurologic score entry (versus vehicle, 0-5 scale) is “no improvement”.
